Assay results: ChEMBL document CHEMBL1201862, “PubChem BioAssay data set” (2004)
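Each compound was tested at five concentrations against cells in 96-well plates for 48 hours. GI50 is the concentration that inhibits growth by half.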 Active and inactive are the calls of the source. Rule as the data show it: active = GI50 up to about 1.1 µM and inactive = higher.

Legend:
Test in all cases: NCI anticancer screen, dose series, 48 h
[1] = system: CAKI-1
[2] = system: CCRF-CEM
[3] = system: HCC 2998
[4] = system: HCT-15
[5] = system: HT-29
[6] = system: K562
[7] = system: MOLT-4
[8] = system: NCI-H226
[9] = system: NCI-H23
[10] = system: NCI-H522
[11] = system: OVCAR-4
[12] = system: SF-295
[13] = system: SF-539
[14] = system: SK-MEL-28
[15] = system: SK-OV-3
[16] = system: SNB-75
[17] = system: SR
[18] = system: SW-620
[19] = system: U-251
[20] = system: UO-31

Row | SMILES | GI50 [1] | GI50 [2] | GI50 [3] | GI50 [4] | GI50 [5] | GI50 [6] | GI50 [7] | GI50 [8] | GI50 [9] | GI50 [10] | GI50 [11] | GI50 [12] | GI50 [13] | GI50 [14] | GI50 [15] | GI50 [16] | GI50 [17] | GI50 [18] | GI50 [19] | GI50 [20]
1 | COC(=O)c1cc(CNCCc2c[nH]c3ccccc23)on1 | > 78.2 µM (inactive) | > 100 µM (inactive) | > 95.5 µM (inactive) | > 100 µM | > 100 µM (inactive) | > 100 µM (inactive) | > 100 µM (inactive) | > 100 µM (inactive) | > 100 µM (inactive) | 29.6 µM (inactive) | > 33.8 µM (inactive) | > 91.8 µM (inactive) | 74.1 µM (inactive) | > 100 µM (inactive) | > 100 µM (inactive) | > 65 µM (inactive) | > 100 µM (inactive) | > 100 µM (inactive) | > 100 µM (inactive) | > 100 µM (inactive)
2 | Cn1c2c([N+](=O)[O-])[se]nc2c(=O)n1-c1ccc([N+](=O)[O-])cc1 | 1.94 µM (inactive) | 0.627 µM (active) | 1.74 µM (inactive) | 1.25 µM | 2.74 µM (inactive) | 0.0664 µM (active) | – | 2.96 µM (inactive) | 1.98 µM (inactive) | 1.7 µM (inactive) | 0.447 µM (active) | 3.13 µM (inactive) | 1.88 µM (inactive) | 2.11 µM (inactive) | 2.72 µM (inactive) | 4.03 µM (inactive) | 0.0474 µM (active) | 0.357 µM (active) | 2.51 µM (inactive) | 1.91 µM (inactive)
3 | COc1cc(/C=C/C(=N\NC(N)=S)c2sc(NNC(C)=O)nc2C)ccc1O | > 100 µM (inactive) | > 100 µM (inactive) | > 100 µM (inactive) | > 100 µM | > 100 µM (inactive) | > 100 µM (inactive) | > 100 µM (inactive) | > 100 µM (inactive) | > 100 µM (inactive) | > 100 µM (inactive) | > 100 µM (inactive) | > 100 µM (inactive) | > 100 µM (inactive) | > 100 µM (inactive) | > 100 µM (inactive) | > 100 µM (inactive) | > 100 µM (inactive) | > 100 µM (inactive) | > 100 µM (inactive) | > 100 µM (inactive)
4 | CN1CCC2(CC1)C(=O)N(N1CCCCCC1)C(=O)N2c1ccccc1 | > 100 µM (inactive) | > 100 µM (inactive) | > 100 µM (inactive) | > 100 µM | 60.5 µM (inactive) | > 100 µM (inactive) | > 100 µM (inactive) | > 100 µM (inactive) | > 100 µM (inactive) | 57.7 µM (inactive) | > 100 µM (inactive) | > 100 µM (inactive) | > 100 µM (inactive) | > 100 µM (inactive) | > 100 µM (inactive) | 31.9 µM (inactive) | > 100 µM (inactive) | > 100 µM (inactive) | > 100 µM (inactive) | > 100 µM (inactive)
5 | O=S(=O)(O)SCCNCCCCCC1CCCCC1 | 19 µM (inactive) | 6.24 µM (inactive) | 5.41 µM (inactive) | 8.77 µM | 6.9 µM (inactive) | 0.863 µM (active) | 8.05 µM (inactive) | 11.5 µM (inactive) | 10.4 µM (inactive) | 18.4 µM (inactive) | 17.2 µM (inactive) | 5.86 µM (inactive) | 7.11 µM (inactive) | 4.26 µM (inactive) | 15.7 µM (inactive) | 3.56 µM (inactive) | 8.99 µM (inactive) | 7.78 µM (inactive) | 5.46 µM (inactive) | 13.9 µM (inactive)
